Assay results taken from patent US20090318424A1, “NOVEL COMPOUNDS” (priority 2006, published 2009).

| melting point | Structure (SMILES) |
| --- | --- |
| 257.3 to 262.5 °C | CCOc1nc(-c2cc(NC(=O)c3ccc(C)c(F)c3)ccc2C)c2c(n1)N(c1c(F)cccc1F)C(=O)NC2 [Example 25, N-{3-[8-(2,6-difluorophenyl)-2-(ethyloxy)-7-oxo-5,6,7,8-tetrahydropyrimido[4,5-d]pyrimidin-4-yl]-4-methylphenyl}-3-fluoro-4-methylbenzamide] |
| 163 to 165 °C | Cc1ccc(C(=O)N(C)C)cc1-c1nc(NC2CCN(C)CC2)nc2c1CNC(=O)N2c1c(F)cccc1F [Example 155, 3-{8-(2,6-difluorophenyl)-2-[(1-methyl-4-piperidinyl)amino]-7-oxo-5,6,7,8-tetrahydropyrimido[4,5-d]pyrimidin-4-yl}-N,N,4-trimethylbenzamide] |
| 160 to 165 °C (dec.) | Cc1ccc(C(=O)NCc2ccccc2)cc1-c1nc(NC2CC(C)(C)NC(C)(C)C2)nc2c1CNC(=O)N2c1c(F)cccc1F [Example 16, 3-{8-(2,6-Difluorophenyl)-7-oxo-2-[(2,2,6,6-tetramethyl-4-piperidinyl)amino]-5,6,7,8-tetrahydropyrimido[4,5-d]pyrimidin-4-yl}-4-methyl-N-(phenylmethyl)benzamide] |
| 205 to 209 °C (dec.) | CNC(=O)c1ccc(C)c(-c2nc(NC3CCN(C)CC3)nc3c2CNC(=O)N3c2c(F)cccc2F)c1 [Example 173, 3-{8-(2,6-difluorophenyl)-2-[(1-methyl-4-piperidinyl)amino]-7-oxo-5,6,7,8-tetrahydropyrimido[4,5-d]pyrimidin-4-yl}-N,4-dimethylbenzamide] |
| 210 to 266 °C (dec.) | Cc1ccc(C(=O)NCc2ccccc2)cc1-c1nc(N2CCC(N)CC2)nc2c1CNC(=O)N2c1c(F)cccc1F [15(c), 3-[2-(4-Amino-1-piperidinyl)-8-(2,6-difluorophenyl)-7-oxo-5,6,7,8-tetrahydropyrimido[4,5-d]pyrimidin-4-yl]-4-methyl-N-(phenylmethyl)benzamide] |
| 114 to 118 °C | Cc1ccc(C(=O)N(C)C)cc1-c1nc(N(C)CCCN(C)C)nc2c1CNC(=O)N2c1c(F)cccc1F [Example 154, 3-{8-(2,6-difluorophenyl)-2-[[3-(dimethylamino)propyl](methyl)amino]-7-oxo-5,6,7,8-tetrahydropyrimido[4,5-d]pyrimidin-4-yl}-N,N,4-trimethylbenzamide] |
| 130 to 133 °C | Cc1ccc(C(=O)N(C)C)cc1-c1nc(NCCNC(C)C)nc2c1CNC(=O)N2c1c(F)cccc1F [Example 153, 3-[8-(2,6-difluorophenyl)-2-({2-[(1-methylethyl)amino]ethyl}amino)-7-oxo-5,6,7,8-tetrahydropyrimido[4,5-d]pyrimidin-4-yl]-N,N,4-trimethylbenzamide] |
| 218 to 223.5 °C | Cc1ccc(C(=O)Nc2ccc(C)c(-c3nc(NC4CCNCC4)nc4c3CNC(=O)N4c3c(F)cccc3F)c2)cc1F [Example 27(b), N-{3-[8-(2,6-difluorophenyl)-7-oxo-2-(4-piperidinylamino)-5,6,7,8-tetrahydropyrimido[4,5-d]pyrimidin-4-yl]-4-methylphenyl}-3-fluoro-4-methylbenzamide] |
| 106 to 108 °C | CCN(CC)C(=O)c1ccc(C)c(-c2nc(N(C)CCCN(C)C)nc3c2CNC(=O)N3c2c(F)cccc2F)c1 [Example 161, 3-{8-(2,6-difluorophenyl)-2-[[3-(dimethylamino)propyl](methyl)amino]-7-oxo-5,6,7,8-tetrahydropyrimido[4,5-d]pyrimidin-4-yl}-N,N-diethyl-4-methylbenzamide] |
| 146 to 150 °C (dec.) | Cc1ccc(C(=O)NCc2ccccc2)cc1-c1nc(N2CCC(N(C)C(=O)OC(C)(C)C)CC2)nc2c1CNC(=O)N2c1c(F)cccc1F [Example 147, 1,1-dimethylethyl {-[8-(2,6-difluorophenyl)-4-(2-methyl-5-{[(phenylmethyl)amino]carbonyl}phenyl)-7-oxo-5,6,7,8-tetrahydropyrimido[4,5-d]pyrimidin-2-yl]-4-piperidinyl}methylcarbamate] |
| 148 to 150 °C | Cc1ccc(C(=O)NCc2ccccc2)cc1-c1nc(NCCN(C)C)nc2c1CNC(=O)N2c1c(F)cccc1F [Example 18, 3-(8-(2,6-Difluorophenyl)-2-{[2-(dimethylamino)ethyl]amino}-7-oxo-5,6,7,8-tetrahydropyrimido[4,5-d]pyrimidin-4-yl)-4-methyl-N-(phenylmethyl)benzamide] |
| 153 to 157 °C (dec.) | CNC(=O)c1ccc(C)c(-c2nc(NCCCNC(C)C)nc3c2CNC(=O)N3c2c(F)cccc2F)c1 [Example 168, 3-[8-(2,6-difluorophenyl)-2-({3-[(1-methylethyl)amino]propyl}amino)-7-oxo-5,6,7,8-tetrahydropyrimido[4,5-d]pyrimidin-4-yl]-N,4-dimethylbenzamide] |
| 133 to 137 °C | Cc1ccc(C(=O)NCc2ccccc2)cc1-c1nc(NCCNC(C)C)nc2c1CNC(=O)N2c1c(F)cccc1F [Example 20, 3-[8-(2,6-Difluorophenyl)-2-({2-[(1-methylethyl)amino]ethyl}amino)-7-oxo-5,6,7,8-tetrahydropyrimido[4,5-d]pyrimidin-4-yl]-4-methyl-N-(phenylmethyl)benzamide] |
| 214 to 215 °C | Cc1ccc(NC(=O)c2ccsc2)cc1-c1nc(N(C)C)nc2c1CNC(=O)N2c1c(F)cccc1F [Example 12, N-{3-[8-(2,6-difluorophenyl)-2-(dimethylamino)-7-oxo-5,6,7,8-tetrahydropyrimido[4,5-d]pyrimidin-4-yl]-4-methylphenyl}-3-thiophenecarboxamide] |
| 89 to 91 °C | CCN(CC)C(=O)c1ccc(C)c(-c2nc(NCCNC(C)C)nc3c2CNC(=O)N3c2c(F)cccc2F)c1 [Example 160, 3-[8-(2,6-difluorophenyl)-2-({2-[(1-methylethyl)amino]ethyl}amino)-7-oxo-5,6,7,8-tetrahydropyrimido[4,5-d]pyrimidin-4-yl]-N,N-diethyl-4-methylbenzamide] |
| 112 to 115 °C | CCCCN(CCCC)CCCNc1nc(-c2cc(C(=O)NC)ccc2C)c2c(n1)N(c1c(F)cccc1F)C(=O)NC2 [Example 171, 3-[2-{[3-(dibutylamino)propyl]amino}-8-(2,6-difluorophenyl)-7-oxo-5,6,7,8-tetrahydropyrimido[4,5-d]pyrimidin-4-yl]-N,4-dimethylbenzamide] |
| 159 to 162 °C | Cc1ccc(C(=O)N(C)C)cc1-c1nc(N2CCN(C)CC2)nc2c1CNC(=O)N2c1c(F)cccc1F [149(c), 3-[8-(2,6-difluorophenyl)-2-(4-methyl-1-piperazinyl)-7-oxo-5,6,7,8-tetrahydropyrimido[4,5-d]pyrimidin-4-yl]-N,N,4-trimethylbenzamide] |
| 164 to 168 °C (dec.) | CNC(=O)c1ccc(C)c(-c2nc(N3CCN(C)CC3)nc3c2CNC(=O)N3c2c(F)cccc2F)c1 [Example 169, 3-[8-(2,6-difluorophenyl)-2-(4-methyl-1-piperazinyl)-7-oxo-5,6,7,8-tetrahydropyrimido[4,5-d]pyrimidin-4-yl]-N,4-dimethylbenzamide] |
| 165 to 169 °C | CCN(CC)C(=O)c1ccc(C)c(-c2nc(NC3CCN(C)CC3)nc3c2CNC(=O)N3c2c(F)cccc2F)c1 [Example 159, 3-{8-(2,6-difluorophenyl)-2-[(1-methyl-4-piperidinyl)amino]-7-oxo-5,6,7,8-tetrahydropyrimido[4,5-d]pyrimidin-4-yl}-N,N-diethyl-4-methylbenzamide] |
